# Reference: patent US10479780B2, “Aminopyrazole derivatives” (Chugai Seiyaku Kabushiki Kaisha, priority 2015, dated 2019)
# pIC50: −log10 of the molar value.
# Experiments:
# Assay type in all cases: biochemical
# human Yes1 enzyme = biological target: T1, human Yes1 enzyme (Homo sapiens, UniProt P07947); test: Yes1 enzyme inhibitory activity (time-resolved fluorometry, biotinylated peptide phosphorylation); settings: biotinylated peptide phosphorylation, read-out: YES_IC50
# T1 construct: made in house
# T1 sequence (P07947 whole entry): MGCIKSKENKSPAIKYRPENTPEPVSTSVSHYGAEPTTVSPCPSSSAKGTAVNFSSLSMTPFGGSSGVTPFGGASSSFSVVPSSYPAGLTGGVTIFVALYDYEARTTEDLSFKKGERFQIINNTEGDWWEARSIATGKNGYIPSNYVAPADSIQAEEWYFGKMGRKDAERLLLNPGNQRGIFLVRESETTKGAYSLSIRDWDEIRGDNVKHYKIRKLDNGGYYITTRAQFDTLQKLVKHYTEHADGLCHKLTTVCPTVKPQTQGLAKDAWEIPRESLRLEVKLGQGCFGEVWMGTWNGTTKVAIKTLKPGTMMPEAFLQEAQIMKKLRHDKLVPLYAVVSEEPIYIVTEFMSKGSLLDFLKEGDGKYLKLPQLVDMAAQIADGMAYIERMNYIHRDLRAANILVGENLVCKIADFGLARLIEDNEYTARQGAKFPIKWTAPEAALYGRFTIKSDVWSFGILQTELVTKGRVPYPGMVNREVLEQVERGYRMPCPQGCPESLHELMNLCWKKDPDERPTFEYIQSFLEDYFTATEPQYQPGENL
# Procedure, shortened: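 Inhibition was expressed against a compound-free control to give IC50, using TR-FRET read-out (Eu-cryptate anti-pTyr antibody, streptavidin-XL665).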
# human Src enzyme = biological target: T2, human Src enzyme (Homo sapiens, UniProt P12931); test: Src enzyme inhibitory activity (time-resolved fluorometry, biotinylated peptide phosphorylation); settings: biotinylated peptide phosphorylation, read-out: SRC_IC50
# T2 construct: purchased Carna Biosciences, Inc. 08-173
# T2 sequence (P12931 whole entry): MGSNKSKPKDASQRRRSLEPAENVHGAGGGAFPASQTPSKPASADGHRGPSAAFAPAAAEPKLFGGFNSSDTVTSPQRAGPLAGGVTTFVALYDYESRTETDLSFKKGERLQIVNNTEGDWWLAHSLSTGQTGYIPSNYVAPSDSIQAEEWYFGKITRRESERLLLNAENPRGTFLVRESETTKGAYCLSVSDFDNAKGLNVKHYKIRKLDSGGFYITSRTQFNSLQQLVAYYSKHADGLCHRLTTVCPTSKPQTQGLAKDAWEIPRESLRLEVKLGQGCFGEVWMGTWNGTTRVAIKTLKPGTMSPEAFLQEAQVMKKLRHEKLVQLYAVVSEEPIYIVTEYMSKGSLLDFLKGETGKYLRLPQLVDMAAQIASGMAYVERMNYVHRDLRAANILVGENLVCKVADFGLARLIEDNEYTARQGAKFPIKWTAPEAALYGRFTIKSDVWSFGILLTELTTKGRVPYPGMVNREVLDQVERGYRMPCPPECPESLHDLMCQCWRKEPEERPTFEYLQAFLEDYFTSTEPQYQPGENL
# Procedure, shortened: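 Compounds were tested for blocking tyrosine phosphorylation of a biotinylated peptide substrate by recombinant human Src. Phosphorylated product was quantified by time-resolved fluorometry using europium cryptate and XL665 conjugates, and IC50 was calculated against the compound-free control.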
# human Lck enzyme = biological target: T3, human Lck enzyme (Homo sapiens, UniProt P06239); test: Lck enzyme inhibitory activity (time-resolved fluorometry, biotinylated peptide phosphorylation); settings: biotinylated peptide phosphorylation, read-out: LCK_IC50
# T3 construct: purchased Carna Biosciences, Inc. 08-170
# T3 sequence (P06239 whole entry): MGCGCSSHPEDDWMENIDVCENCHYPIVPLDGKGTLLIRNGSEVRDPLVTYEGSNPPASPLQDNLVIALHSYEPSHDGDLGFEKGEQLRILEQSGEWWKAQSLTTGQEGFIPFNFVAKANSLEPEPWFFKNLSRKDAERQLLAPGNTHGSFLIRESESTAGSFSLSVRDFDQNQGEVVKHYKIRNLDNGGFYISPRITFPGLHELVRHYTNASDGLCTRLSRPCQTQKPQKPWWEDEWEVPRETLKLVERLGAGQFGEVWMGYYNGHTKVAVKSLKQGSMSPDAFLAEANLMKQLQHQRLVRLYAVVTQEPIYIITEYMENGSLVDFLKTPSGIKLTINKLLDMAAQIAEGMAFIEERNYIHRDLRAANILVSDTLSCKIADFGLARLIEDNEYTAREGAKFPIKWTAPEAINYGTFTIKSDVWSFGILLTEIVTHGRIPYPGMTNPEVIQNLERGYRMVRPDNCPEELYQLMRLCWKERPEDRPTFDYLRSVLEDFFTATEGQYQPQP
# Procedure, shortened: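 Readout pairs a europium cryptate-labelled anti-phosphotyrosine antibody with XL665-streptavidin, measured by time-resolved fluorescence. IC50 derived from percent inhibition against untreated controls.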
SMILES,pIC50 (human Yes1 enzyme),pIC50 (human Src enzyme),pIC50 (human Lck enzyme)
"Cc1ccccc1Oc1cc(C)c(-n2ncc(C(=O)c3cc4cc(F)c(NS(=O)(=O)C5CC5)cc4[nH]3)c2N)cn1 [Example 4-2-047, N-[2-[5-amino-1-[4-methyl-6-(2-methylphenoxy)pyridin-3-yl]pyrazole-4-carbonyl]-5-fluoro-1H-indol-6-yl]cyclopropanesulfonamide]",8.35,7.10,7.19
"Cc1cc(Oc2cccc(F)c2)ncc1-n1ncc(C(=O)c2cc3cc(F)c(NS(=O)(=O)C4CC4)cc3[nH]2)c1N [Example 4-2-048, N-[2-[5-amino-1-[6-(3-fluorophenoxy)-4-methylpyridin-3-yl]pyrazole-4-carbonyl]-5-fluoro-1H-indol-6-yl]cyclopropanesulfonamide]",7.92,6.54,7.10
"Cc1cc2[nH]c(C(=O)c3cnn(-c4ccc(Oc5ccccc5F)cc4C)c3N)cc2cc1NS(C)(=O)=O [Example 4-2-049, N-[2-[5-amino-1-[4-(2-fluorophenoxy)-2-methylphenyl]pyrazole-4-carbonyl]-6-methyl-1H-indol-5-yl]methanesulfonamide]",9.54,8.72,8.77
"Cc1cc2[nH]c(C(=O)c3cnn(-c4ccc(Oc5cccc(F)c5F)cc4C)c3N)cc2cc1NS(C)(=O)=O [Example 4-2-050, N-[2-[5-amino-1-[4-(2,3-difluorophenoxy)-2-methylphenyl]pyrazole-4-carbonyl]-6-methyl-1H-indol-5-yl]methanesulfonamide]",9.70,8.15,8.77
"Cc1cc2[nH]c(C(=O)c3cnn(-c4c(C)cc(Oc5ccccc5F)cc4F)c3N)cc2cc1NS(C)(=O)=O [Example 4-2-051, N-[2-[5-amino-1-[2-fluoro-4-(2-fluorophenoxy)-6-methylphenyl]pyrazole-4-carbonyl]-6-methyl-1H-indol-5-yl]methanesulfonamide]",9.23,8.42,8.92
"Cc1cc2cc(C(=O)c3cnn(-c4ccc(Oc5ccccc5F)cc4C)c3N)[nH]c2cc1NS(C)(=O)=O [Example 4-2-053, N-[2-[5-amino-1-[4-(2-fluorophenoxy)-2-methylphenyl]pyrazole-4-carbonyl]-5-methyl-1H-indol-6-yl]methanesulfonamide]",9.47,7.72,8.29
"Cc1cc2cc(C(=O)c3cnn(-c4ccc(Oc5cccc(F)c5F)cc4C)c3N)[nH]c2cc1NS(C)(=O)=O [Example 4-2-054, N-[2-[5-amino-1-[4-(2,3-difluorophenoxy)-2-methylphenyl]pyrazole-4-carbonyl]-5-methyl-1H-indol-6-yl]methanesulfonamide]",8.82,7.21,7.82
"Cc1cc2cc(C(=O)c3cnn(-c4c(C)cc(Oc5ccccc5Cl)cc4F)c3N)[nH]c2cc1NS(C)(=O)=O [Example 4-2-058, N-[2-[5-amino-1-[4-(2-chlorophenoxy)-2-fluoro-6-methylphenyl]pyrazole-4-carbonyl]-5-methyl-1H-indol-6-yl]methanesulfonamide]",8.40,6.74,7.16
"Cc1cc2cc(C(=O)c3cnn(-c4c(C)cc(Oc5cccc(Cl)c5)cc4F)c3N)[nH]c2cc1NS(C)(=O)=O [Example 4-2-059, N-[2-[5-amino-1-[4-(3-chlorophenoxy)-2-fluoro-6-methylphenyl]pyrazole-4-carbonyl]-5-methyl-1H-indol-6-yl]methanesulfonamide]",8.11,6.41,6.96
"Cc1cc2cc(C(=O)c3cnn(-c4c(C)cc(Oc5ccccc5)cc4F)c3N)[nH]c2cc1NS(C)(=O)=O [Example 4-2-060, N-[2-[5-amino-1-(2-fluoro-6-methyl-4-phenoxyphenyl)pyrazole-4-carbonyl]-5-methyl-1H-indol-6-yl]methanesulfonamide]",8.70,7.24,7.82
"Cc1cc2cc(C(=O)c3cnn(-c4cnc(Oc5ccccc5F)cc4C)c3N)[nH]c2cc1NS(C)(=O)=O [Example 4-2-061, N-(2-(5-Amino-1-(6-(2-fluorophenoxy)-4-methylpyridin-3-yl)-1H-pyrazole-4-carbonyl)-5-methyl-1H-indol-6-yl)methanesulfonamide]",9.28,7.51,8.19
"Cc1cc2cc(C(=O)c3cnn(-c4cnc(Oc5cccc(F)c5F)cc4C)c3N)[nH]c2cc1NS(C)(=O)=O [Example 4-2-062, N-[2-[5-amino-1-[6-(2,3-difluorophenoxy)-4-methylpyridin-3-yl]pyrazole-4-carbonyl]-5-methyl-1H-indol-6-yl]methanesulfonamide]",8.49,6.89,7.68
"Cc1cc2cc(C(=O)c3cnn(-c4cnc(Oc5ccccc5Cl)cc4C)c3N)[nH]c2cc1NS(C)(=O)=O [Example 4-2-063, N-[2-[5-amino-1-[6-(2-chlorophenoxy)-4-methylpyridin-3-yl]pyrazole-4-carbonyl]-5-methyl-1H-indol-6-yl]methanesulfonamide]",8.70,7.11,8.08
"Cc1cc2cc(C(=O)c3cnn(-c4cnc(Oc5c(F)cccc5Cl)cc4C)c3N)[nH]c2cc1NS(C)(=O)=O [Example 4-2-064, N-[2-[5-amino-1-[6-(2-chloro-6-fluorophenoxy)-4-methylpyridin-3-yl]pyrazole-4-carbonyl]-5-methyl-1H-indol-6-yl]methanesulfonamide]",8.62,7.20,7.85
"Cc1cc2cc(C(=O)c3cnn(-c4cnc(Oc5ccccc5C)cc4C)c3N)[nH]c2cc1NS(C)(=O)=O [Example 4-2-065, N-[2-[5-amino-1-[4-methyl-6-(2-methylphenoxy)pyridin-3-yl]pyrazole-4-carbonyl]-5-methyl-1H-indol-6-yl]methanesulfonamide]",8.66,7.36,7.74
"Cc1cc2cc(C(=O)c3cnn(-c4ccc(Oc5cccc(F)c5F)cc4C)c3N)[nH]c2cc1NS(=O)(=O)CCCF [Example 4-2-069, N-[2-[5-amino-1-[4-(2,3-difluorophenoxy)-2-methylphenyl]pyrazole-4-carbonyl]-5-methyl-1H-indol-6-yl]-3-fluoropropane-1-sulfonamide]",9.00,7.17,7.66

# Continued by rising pIC50 (human Yes1 enzyme), values first:
pIC50 (human Yes1 enzyme),pIC50 (human Src enzyme),pIC50 (human Lck enzyme),SMILES
7.92,6.64,7.32,"Cc1cc(Oc2c(F)cccc2Cl)ncc1-n1ncc(C(=O)c2cc3cc(F)c(NS(=O)(=O)C4CC4)cc3[nH]2)c1N [Example 4-2-046, N-[2-[5-amino-1-[6-(2-chloro-6-fluorophenoxy)-4-methylpyridin-3-yl]pyrazole-4-carbonyl]-5-fluoro-1H-indol-6-yl]cyclopropanesulfonamide]"
8.03,6.80,7.44,"Cc1cc2cc(C(=O)c3cnn(-c4cnc(Oc5cccc(Cl)c5)cc4C)c3N)[nH]c2cc1NS(C)(=O)=O [Example 4-2-066, N-[2-[5-amino-1-[6-(3-chlorophenoxy)-4-methylpyridin-3-yl]pyrazole-4-carbonyl]-5-methyl-1H-indol-6-yl]methanesulfonamide]"
8.20,7.01,7.23,"Cc1cc2cc(C(=O)c3cnn(-c4cnc(Oc5ccc(F)cc5)cc4C)c3N)[nH]c2cc1NS(C)(=O)=O [Example 4-2-067, N-[2-[5-amino-1-[6-(4-fluorophenoxy)-4-methylpyridin-3-yl]pyrazole-4-carbonyl]-5-methyl-1H-indol-6-yl]methanesulfonamide]"
8.37,6.85,7.57,"Cc1cc2cc(C(=O)c3cnn(-c4c(C)cc(Oc5cc(F)ccc5F)cc4F)c3N)[nH]c2cc1NS(C)(=O)=O [Example 4-2-057, N-[2-[5-amino-1-[4-(2,5-difluorophenoxy)-2-fluoro-6-methylphenyl]pyrazole-4-carbonyl]-5-methyl-1H-indol-6-yl]methanesulfonamide]"
8.41,7.01,7.62,"Cc1cc2cc(C(=O)c3cnn(-c4c(C)cc(Oc5cccc(F)c5F)cc4F)c3N)[nH]c2cc1NS(C)(=O)=O [Example 4-2-056, N-[2-[5-amino-1-[4-(2,3-difluorophenoxy)-2-fluoro-6-methylphenyl]pyrazole-4-carbonyl]-5-methyl-1H-indol-6-yl]methanesulfonamide]"
8.52,7.19,7.59,"Cc1cc2cc(C(=O)c3cnn(-c4c(C)cc(Oc5ccccc5F)cc4F)c3N)[nH]c2cc1NS(C)(=O)=O [Example 4-2-055, N-[2-[5-amino-1-[2-fluoro-4-(2-fluorophenoxy)-6-methylphenyl]pyrazole-4-carbonyl]-5-methyl-1H-indol-6-yl]methanesulfonamide]"
8.74,7.55,7.68,"Cc1cc2cc(C(=O)c3cnn(-c4ccc(Oc5ccccc5F)cc4C)c3N)[nH]c2cc1NS(=O)(=O)CCCF [Example 4-2-068, N-[2-[5-amino-1-[4-(2-fluorophenoxy)-2-methylphenyl]pyrazole-4-carbonyl]-5-methyl-1H-indol-6-yl]-3-fluoropropane-1-sulfonamide]"
9.36,8.28,9.01,"Cc1cc2[nH]c(C(=O)c3cnn(-c4cnc(Oc5ccccc5F)cc4C)c3N)cc2cc1NS(C)(=O)=O [Example 4-2-052, N-[2-[5-amino-1-[6-(2-fluorophenoxy)-4-methylpyridin-3-yl]pyrazole-4-carbonyl]-6-methyl-1H-indol-5-yl]methanesulfonamide]"
